Measured values published in ChEMBL document CHEMBL5465560, “Selectivity Literature for EUbOPEN Chemogenomic Library” (2024).

Assays:
[1] = target: Calcium/calmodulin-dependent protein kinase type II subunit alpha (Homo sapiens, UniProt Q9UQM7); test: Selectivity interaction (Kinase panel (Enzymatic assay, microfluidic mobility shift readout, Caliper lifesciences, conc. ATP = Km for each kinase)) EUB0000678a CAMK2A
[2] = target: Cyclin-dependent kinase 2 (Homo sapiens, UniProt P24941); test: Selectivity interaction (Kinase panel (Enzymatic assay, microfluidic mobility shift readout, Caliper lifesciences, conc. ATP = Km for each kinase)) EUB0000678a CDK2
[3] = target: T1, Interleukin-1 receptor-associated kinase 4 (Homo sapiens, UniProt Q9NWZ3); test: Selectivity interaction (Kinase panel (Enzymatic assay, microfluidic mobility shift readout, Caliper lifesciences, conc. ATP = Km for each kinase)) EUB0000678a IRAK4
T1 sequence (Q9NWZ3 whole entry): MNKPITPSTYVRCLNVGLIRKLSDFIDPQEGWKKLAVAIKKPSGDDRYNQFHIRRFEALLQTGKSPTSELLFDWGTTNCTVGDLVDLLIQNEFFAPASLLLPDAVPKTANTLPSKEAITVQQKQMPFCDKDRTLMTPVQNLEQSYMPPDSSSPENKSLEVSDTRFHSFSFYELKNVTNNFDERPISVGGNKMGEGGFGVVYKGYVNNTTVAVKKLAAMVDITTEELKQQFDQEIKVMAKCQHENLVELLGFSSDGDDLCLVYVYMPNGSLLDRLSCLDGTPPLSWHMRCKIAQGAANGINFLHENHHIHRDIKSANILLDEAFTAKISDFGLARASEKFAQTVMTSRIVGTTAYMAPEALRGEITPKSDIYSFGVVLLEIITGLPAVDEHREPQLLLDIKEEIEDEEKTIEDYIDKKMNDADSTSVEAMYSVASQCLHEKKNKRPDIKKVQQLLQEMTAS

[4] = target: Tyrosine-protein kinase JAK1 (Homo sapiens, UniProt P23458); test: Selectivity interaction (Kinase panel (Enzymatic assay, microfluidic mobility shift readout, Caliper lifesciences, conc. ATP = Km for each kinase)) EUB0000678a JAK1
[5] = target: Tyrosine-protein kinase JAK2 (Homo sapiens, UniProt O60674); test: Selectivity interaction (Kinase panel (Enzymatic assay, microfluidic mobility shift readout, Caliper lifesciences, conc. ATP = Km for each kinase)) EUB0000678a JAK2
[6] = target: Mitogen-activated protein kinase 14 (Homo sapiens, UniProt Q16539); test: Selectivity interaction (Kinase panel (Enzymatic assay, microfluidic mobility shift readout, Caliper lifesciences, conc. ATP = Km for each kinase)) EUB0000678a MAPK14
[7] = target: Hepatocyte growth factor receptor (Homo sapiens, UniProt P08581); test: Selectivity interaction (Kinase panel (Enzymatic assay, microfluidic mobility shift readout, Caliper lifesciences, conc. ATP = Km for each kinase)) EUB0000678a MET
[8] = target: Serine/threonine-protein kinase mTOR (Homo sapiens, UniProt P42345); test: Selectivity interaction (Kinase panel (KinaseGlo Luminescent Kinase Assay, Promega)) EUB0000678a MTOR
[9] = target: Phosphatidylinositol 3-kinase catalytic subunit type 3 (Homo sapiens, UniProt Q8NEB9); test: Selectivity interaction (Kinase panel (KinaseGlo Luminescent Kinase Assay, Promega)) EUB0000678a PIK3C3
[10] = target: cAMP-dependent protein kinase catalytic subunit alpha (Homo sapiens, UniProt P17612); test: Selectivity interaction (Kinase panel (Enzymatic assay, microfluidic mobility shift readout, Caliper lifesciences, conc. ATP = Km for each kinase)) EUB0000678a PRKACA
[11] = target: Ribosomal protein S6 kinase alpha-1 (Homo sapiens, UniProt Q15418); test: Selectivity interaction (Kinase panel (Enzymatic assay, microfluidic mobility shift readout, Caliper lifesciences, conc. ATP = Km for each kinase)) EUB0000678a RPS6KA1
[12] = target: Tyrosine-protein kinase SYK (Homo sapiens, UniProt P43405); test: Selectivity interaction (Kinase panel (Enzymatic assay, microfluidic mobility shift readout, Caliper lifesciences, conc. ATP = Km for each kinase)) EUB0000678a SYK
[13] = target: Non-receptor tyrosine-protein kinase TYK2 (Homo sapiens, UniProt P29597); test: Selectivity interaction (Kinase panel (Enzymatic assay, microfluidic mobility shift readout, Caliper lifesciences, conc. ATP = Km for each kinase)) EUB0000678a TYK2
[14] = Selectivity interaction (Kinase panel (cellular selectivity, Bright-Glo proliferation assay in BaF3 Cell line, Promega)) EUB0000678a ALK
[15] = Selectivity interaction (Kinase panel (cellular selectivity, Bright-Glo proliferation assay in BaF3 Cell line, Promega)) EUB0000678a BMX
[16] = Selectivity interaction (Kinase panel (cellular selectivity, Bright-Glo proliferation assay in BaF3 Cell line, Promega)) EUB0000678a KDR
[17] = as above; remark: listed apart in the source
[18] = Selectivity interaction (Kinase panel (cellular selectivity, Bright-Glo proliferation assay in BaF3 Cell line, Promega)) EUB0000678a LYN
[19] = Selectivity interaction (Kinase panel (cellular selectivity, Bright-Glo proliferation assay in BaF3 Cell line, Promega)) EUB0000678a MET
[20] = Selectivity interaction (Kinase panel (cellular selectivity, Bright-Glo proliferation assay in BaF3 Cell line, Promega)) EUB0000678a RET
[21] = Selectivity interaction (Kinase panel (cellular selectivity, Bright-Glo proliferation assay in BaF3 Cell line, Promega)) EUB0000678a SRC
[22] = Selectivity interaction (Kinase panel (cellular selectivity, Bright-Glo proliferation assay in BaF3 Cell line, Promega)) EUB0000678a SYK
[23] = Selectivity interaction (Kinase panel (cellular selectivity, Bright-Glo proliferation assay in BaF3 Cell line, Promega)) EUB0000678a TEK
[24] = Selectivity interaction (Kinase panel (cellular selectivity, Bright-Glo proliferation assay in BaF3 Cell line, Promega)) EUB0000678a FLT1
[25] = Selectivity interaction (Kinase panel (cellular selectivity, Bright-Glo proliferation assay in BaF3 Cell line, Promega)) EUB0000678a FLT4
[26] = Selectivity interaction (Kinase panel (cellular selectivity, Bright-Glo proliferation assay in BaF3 Cell line, Promega)) EUB0000678a INSR
[27] = Selectivity interaction (Kinase panel (cellular selectivity, Bright-Glo proliferation assay in BaF3 Cell line, Promega)) EUB0000678a JAK2
[28] = Selectivity interaction (Kinase panel (cellular selectivity, Bright-Glo proliferation assay in BaF3 Cell line, Promega)) EUB0000678a ROS1
[29] = Selectivity interaction (Kinase panel (cellular selectivity, Bright-Glo proliferation assay in BaF3 Cell line, Promega)) EUB0000678a TYK2
[30] = Selectivity interaction (Kinase panel (cellular selectivity, Bright-Glo proliferation assay in BaF3 Cell line, Promega)) EUB0000678a EPHB1
[31] = Selectivity interaction (Kinase panel (cellular selectivity, Bright-Glo proliferation assay in BaF3 Cell line, Promega)) EUB0000678a NTRK2
[32] = target: Dual specificity protein kinase CLK1 (Homo sapiens, UniProt P49759); test: Selectivity interaction (Radioactive assay (Reaction Biology)) EUB0001046a CLK1
[33] = target: Dual specificity protein kinase CLK2 (Homo sapiens, UniProt P49760); test: Selectivity interaction (Radioactive assay (Reaction Biology)) EUB0001046a CLK2
[34] = target: Dual specificity protein kinase CLK3 (Homo sapiens, UniProt P49761); test: Selectivity interaction (Radioactive assay (Reaction Biology)) EUB0001046a CLK3
[35] = target: Dual specificity protein kinase CLK4 (Homo sapiens, UniProt Q9HAZ1); test: Selectivity interaction (Radioactive assay (Reaction Biology)) EUB0001046a CLK4
[36] = target: Dual specificity tyrosine-phosphorylation-regulated kinase 1A (Homo sapiens, UniProt Q13627); test: Selectivity interaction (Radioactive assay (Reaction Biology)) EUB0001046a DYRK1A
[37] = target: Dual specificity tyrosine-phosphorylation-regulated kinase 1B (Homo sapiens, UniProt Q9Y463); test: Selectivity interaction (Radioactive assay (Reaction Biology)) EUB0001046a DYRK1B
[38] = target: T2, Dual specificity tyrosine-phosphorylation-regulated kinase 2 (Homo sapiens, UniProt Q92630); test: Selectivity interaction (Radioactive assay (Reaction Biology)) EUB0001046a DYRK2
T2 sequence (Q92630 whole entry): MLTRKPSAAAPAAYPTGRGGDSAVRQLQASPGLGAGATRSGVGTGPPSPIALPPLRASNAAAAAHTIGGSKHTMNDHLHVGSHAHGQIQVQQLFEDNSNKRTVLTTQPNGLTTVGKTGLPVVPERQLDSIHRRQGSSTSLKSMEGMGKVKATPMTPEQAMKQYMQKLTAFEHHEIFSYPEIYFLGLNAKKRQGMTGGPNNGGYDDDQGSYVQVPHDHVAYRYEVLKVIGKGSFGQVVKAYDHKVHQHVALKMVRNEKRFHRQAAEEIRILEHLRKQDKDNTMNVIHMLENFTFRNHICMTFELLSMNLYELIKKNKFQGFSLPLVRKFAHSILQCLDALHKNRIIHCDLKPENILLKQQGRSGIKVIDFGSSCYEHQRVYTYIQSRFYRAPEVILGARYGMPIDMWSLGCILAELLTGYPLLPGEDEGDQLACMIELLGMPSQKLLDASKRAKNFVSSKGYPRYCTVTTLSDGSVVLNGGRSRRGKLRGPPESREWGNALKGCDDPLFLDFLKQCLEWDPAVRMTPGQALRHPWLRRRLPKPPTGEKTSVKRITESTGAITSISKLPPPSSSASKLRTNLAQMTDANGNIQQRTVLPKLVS

[39] = target: T3, Dual specificity tyrosine-phosphorylation-regulated kinase 3 (Homo sapiens, UniProt O43781); test: Selectivity interaction (Radioactive assay (Reaction Biology)) EUB0001046a DYRK3
T3 sequence (O43781 whole entry): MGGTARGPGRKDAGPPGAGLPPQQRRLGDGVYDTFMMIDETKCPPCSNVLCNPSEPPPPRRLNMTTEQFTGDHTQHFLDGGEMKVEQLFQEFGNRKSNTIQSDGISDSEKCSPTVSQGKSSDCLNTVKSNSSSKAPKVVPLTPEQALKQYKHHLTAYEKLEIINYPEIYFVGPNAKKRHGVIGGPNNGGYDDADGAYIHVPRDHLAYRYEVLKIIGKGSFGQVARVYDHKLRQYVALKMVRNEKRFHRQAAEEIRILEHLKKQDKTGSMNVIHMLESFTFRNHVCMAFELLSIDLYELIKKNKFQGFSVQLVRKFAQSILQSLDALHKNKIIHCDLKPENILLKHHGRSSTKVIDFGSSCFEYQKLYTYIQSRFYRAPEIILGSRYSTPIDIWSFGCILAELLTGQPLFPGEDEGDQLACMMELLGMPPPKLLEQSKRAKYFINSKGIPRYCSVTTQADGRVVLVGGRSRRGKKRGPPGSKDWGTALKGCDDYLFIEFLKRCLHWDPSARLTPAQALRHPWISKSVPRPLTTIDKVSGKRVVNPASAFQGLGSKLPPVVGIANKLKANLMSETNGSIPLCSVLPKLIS

SRSF protein kinase 1 [40] = target: T4, SRSF protein kinase 1 (Homo sapiens, UniProt Q96SB4)
SRSF protein kinase 1 [41] = target: T4, SRSF protein kinase 1; remark: listed apart in the source
[42] = target: SRSF protein kinase 2 (Homo sapiens) (UniProt P78362)

T4 sequence (Q96SB4 whole entry): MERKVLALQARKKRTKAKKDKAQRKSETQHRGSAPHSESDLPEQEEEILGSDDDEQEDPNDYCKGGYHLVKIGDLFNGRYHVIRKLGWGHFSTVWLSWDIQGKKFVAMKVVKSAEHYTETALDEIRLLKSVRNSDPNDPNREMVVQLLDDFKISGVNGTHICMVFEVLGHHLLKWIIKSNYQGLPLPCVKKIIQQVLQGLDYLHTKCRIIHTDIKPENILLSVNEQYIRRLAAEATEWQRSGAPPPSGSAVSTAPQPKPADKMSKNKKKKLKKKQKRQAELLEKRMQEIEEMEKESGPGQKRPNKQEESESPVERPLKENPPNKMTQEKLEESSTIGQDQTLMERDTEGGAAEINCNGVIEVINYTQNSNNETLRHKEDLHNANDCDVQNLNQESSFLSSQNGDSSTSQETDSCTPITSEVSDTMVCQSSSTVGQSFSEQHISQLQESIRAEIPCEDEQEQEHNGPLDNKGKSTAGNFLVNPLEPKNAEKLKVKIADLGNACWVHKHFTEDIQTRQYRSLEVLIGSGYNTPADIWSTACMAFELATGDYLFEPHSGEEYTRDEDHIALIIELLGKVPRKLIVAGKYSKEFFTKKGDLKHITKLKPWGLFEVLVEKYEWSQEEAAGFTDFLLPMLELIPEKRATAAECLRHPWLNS
Tyrosine-protein kinase JAK2, sequence (O60674 whole entry): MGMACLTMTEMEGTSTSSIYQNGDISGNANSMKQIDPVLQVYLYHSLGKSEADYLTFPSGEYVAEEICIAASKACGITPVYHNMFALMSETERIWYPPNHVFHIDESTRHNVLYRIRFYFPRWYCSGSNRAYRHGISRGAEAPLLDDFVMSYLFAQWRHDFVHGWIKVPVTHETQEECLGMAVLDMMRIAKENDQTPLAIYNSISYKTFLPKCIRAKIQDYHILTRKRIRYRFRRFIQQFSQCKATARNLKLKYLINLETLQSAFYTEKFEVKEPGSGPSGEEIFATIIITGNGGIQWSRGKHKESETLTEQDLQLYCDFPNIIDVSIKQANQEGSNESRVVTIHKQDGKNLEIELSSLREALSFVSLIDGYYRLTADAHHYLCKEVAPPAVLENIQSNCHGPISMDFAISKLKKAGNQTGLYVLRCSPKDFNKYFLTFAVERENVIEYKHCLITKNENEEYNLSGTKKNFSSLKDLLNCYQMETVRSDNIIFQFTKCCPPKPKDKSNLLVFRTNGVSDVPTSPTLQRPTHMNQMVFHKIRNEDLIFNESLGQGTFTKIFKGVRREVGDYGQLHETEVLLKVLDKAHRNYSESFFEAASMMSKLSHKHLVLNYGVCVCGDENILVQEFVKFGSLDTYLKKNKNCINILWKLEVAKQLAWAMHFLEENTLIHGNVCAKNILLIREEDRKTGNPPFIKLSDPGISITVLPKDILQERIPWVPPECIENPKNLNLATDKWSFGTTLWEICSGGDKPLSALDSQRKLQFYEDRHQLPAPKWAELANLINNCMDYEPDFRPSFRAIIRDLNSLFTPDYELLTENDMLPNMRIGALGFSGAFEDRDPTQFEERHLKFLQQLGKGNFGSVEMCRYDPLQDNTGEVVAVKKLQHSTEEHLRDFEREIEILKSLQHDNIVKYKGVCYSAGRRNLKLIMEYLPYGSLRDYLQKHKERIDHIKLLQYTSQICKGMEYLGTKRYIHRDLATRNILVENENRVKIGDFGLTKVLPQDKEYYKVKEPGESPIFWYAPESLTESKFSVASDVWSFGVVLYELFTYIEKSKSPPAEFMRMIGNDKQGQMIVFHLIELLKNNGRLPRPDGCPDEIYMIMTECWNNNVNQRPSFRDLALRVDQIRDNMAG
Phosphatidylinositol 3-kinase catalytic subunit type 3, sequence (Q8NEB9 whole entry): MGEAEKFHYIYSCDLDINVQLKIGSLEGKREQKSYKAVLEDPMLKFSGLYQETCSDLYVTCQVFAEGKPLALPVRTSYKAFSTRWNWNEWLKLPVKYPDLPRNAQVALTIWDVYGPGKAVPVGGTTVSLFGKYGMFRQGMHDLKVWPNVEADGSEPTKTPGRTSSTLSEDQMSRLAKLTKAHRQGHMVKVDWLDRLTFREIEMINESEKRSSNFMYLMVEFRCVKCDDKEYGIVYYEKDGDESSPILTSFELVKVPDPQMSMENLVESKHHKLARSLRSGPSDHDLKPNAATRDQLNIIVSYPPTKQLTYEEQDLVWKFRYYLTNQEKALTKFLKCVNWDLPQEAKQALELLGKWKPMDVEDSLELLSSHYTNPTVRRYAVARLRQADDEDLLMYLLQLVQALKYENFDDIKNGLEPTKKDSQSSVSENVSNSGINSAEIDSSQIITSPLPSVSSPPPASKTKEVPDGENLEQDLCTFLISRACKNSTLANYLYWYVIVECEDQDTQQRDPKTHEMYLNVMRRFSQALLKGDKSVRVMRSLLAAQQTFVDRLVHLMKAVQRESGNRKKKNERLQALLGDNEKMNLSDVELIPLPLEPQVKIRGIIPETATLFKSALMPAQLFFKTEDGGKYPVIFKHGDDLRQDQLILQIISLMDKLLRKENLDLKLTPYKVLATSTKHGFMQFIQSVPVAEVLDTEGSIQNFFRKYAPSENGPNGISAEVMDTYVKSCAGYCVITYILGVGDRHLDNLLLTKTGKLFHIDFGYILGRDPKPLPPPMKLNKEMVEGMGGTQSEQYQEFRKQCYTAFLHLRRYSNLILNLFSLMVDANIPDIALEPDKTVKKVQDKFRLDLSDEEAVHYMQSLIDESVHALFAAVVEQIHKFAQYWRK
Dual specificity protein kinase CLK4, sequence (Q9HAZ1 whole entry): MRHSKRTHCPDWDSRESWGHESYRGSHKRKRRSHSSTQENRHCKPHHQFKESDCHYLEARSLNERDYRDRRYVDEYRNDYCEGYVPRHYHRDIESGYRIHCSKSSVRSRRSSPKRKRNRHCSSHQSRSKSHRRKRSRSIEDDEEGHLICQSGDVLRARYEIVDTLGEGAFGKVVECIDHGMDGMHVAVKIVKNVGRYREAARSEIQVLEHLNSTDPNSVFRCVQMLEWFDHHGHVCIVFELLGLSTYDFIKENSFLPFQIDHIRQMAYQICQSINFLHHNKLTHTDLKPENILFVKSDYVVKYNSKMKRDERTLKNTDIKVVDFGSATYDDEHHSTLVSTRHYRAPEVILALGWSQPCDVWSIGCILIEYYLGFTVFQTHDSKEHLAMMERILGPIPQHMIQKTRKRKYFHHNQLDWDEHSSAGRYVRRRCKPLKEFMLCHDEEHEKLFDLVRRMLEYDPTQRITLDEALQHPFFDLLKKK
Calcium/calmodulin-dependent protein kinase type II subunit alpha, sequence (Q9UQM7 whole entry): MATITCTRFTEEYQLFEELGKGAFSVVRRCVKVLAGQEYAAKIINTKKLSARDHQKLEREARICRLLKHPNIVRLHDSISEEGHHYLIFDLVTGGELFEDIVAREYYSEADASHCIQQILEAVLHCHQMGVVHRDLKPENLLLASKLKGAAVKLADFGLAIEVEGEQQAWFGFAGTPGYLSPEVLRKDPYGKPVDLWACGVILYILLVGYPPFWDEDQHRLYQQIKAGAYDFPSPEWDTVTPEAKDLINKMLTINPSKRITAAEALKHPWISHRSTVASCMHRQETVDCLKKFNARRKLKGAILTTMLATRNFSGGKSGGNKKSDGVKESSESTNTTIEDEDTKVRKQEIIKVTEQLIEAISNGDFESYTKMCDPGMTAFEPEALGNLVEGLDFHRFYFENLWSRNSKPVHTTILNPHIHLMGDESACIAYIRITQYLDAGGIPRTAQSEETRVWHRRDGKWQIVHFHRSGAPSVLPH
Tyrosine-protein kinase JAK1, sequence (P23458 whole entry): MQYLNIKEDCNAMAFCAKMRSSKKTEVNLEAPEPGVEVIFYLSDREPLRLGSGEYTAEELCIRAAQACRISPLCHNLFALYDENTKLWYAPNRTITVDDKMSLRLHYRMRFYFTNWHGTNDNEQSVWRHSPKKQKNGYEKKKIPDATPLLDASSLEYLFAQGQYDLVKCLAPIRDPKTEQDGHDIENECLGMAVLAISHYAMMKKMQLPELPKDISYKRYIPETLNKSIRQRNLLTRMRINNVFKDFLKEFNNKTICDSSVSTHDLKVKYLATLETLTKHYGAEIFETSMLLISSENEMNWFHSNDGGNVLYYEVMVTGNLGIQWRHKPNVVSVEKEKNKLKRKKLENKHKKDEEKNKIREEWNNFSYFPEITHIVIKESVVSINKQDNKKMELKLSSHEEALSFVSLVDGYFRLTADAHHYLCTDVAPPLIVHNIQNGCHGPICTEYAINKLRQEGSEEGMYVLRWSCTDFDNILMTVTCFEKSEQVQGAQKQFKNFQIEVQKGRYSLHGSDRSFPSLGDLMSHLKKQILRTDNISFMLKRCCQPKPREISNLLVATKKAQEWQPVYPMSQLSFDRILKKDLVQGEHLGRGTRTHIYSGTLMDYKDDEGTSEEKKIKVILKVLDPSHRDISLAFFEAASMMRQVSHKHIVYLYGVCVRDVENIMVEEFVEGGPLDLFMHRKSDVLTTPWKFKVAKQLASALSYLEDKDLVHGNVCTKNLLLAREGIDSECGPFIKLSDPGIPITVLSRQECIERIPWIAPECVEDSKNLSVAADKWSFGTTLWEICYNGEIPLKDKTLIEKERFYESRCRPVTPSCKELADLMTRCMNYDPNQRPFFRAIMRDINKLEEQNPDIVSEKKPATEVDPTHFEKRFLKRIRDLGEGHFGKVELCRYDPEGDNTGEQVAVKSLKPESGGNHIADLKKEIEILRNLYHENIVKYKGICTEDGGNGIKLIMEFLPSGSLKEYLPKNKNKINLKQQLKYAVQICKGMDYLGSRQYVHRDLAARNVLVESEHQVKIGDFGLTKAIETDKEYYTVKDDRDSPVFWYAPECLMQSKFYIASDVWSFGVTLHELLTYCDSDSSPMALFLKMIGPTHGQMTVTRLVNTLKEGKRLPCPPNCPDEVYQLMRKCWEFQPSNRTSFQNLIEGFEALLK

SMILES: CCN1CCN(c2ccc(Nc3cc(N(C)C(=O)Nc4c(Cl)c(OC)cc(OC)c4Cl)ncn3)cc2)CC1 [INFIGRATINIB]
- IC50 [1]: > 10 µM
- IC50 [2]: > 10 µM
- IC50 [3]: > 10 µM
- IC50 [4]: > 10 µM
- IC50 [5]: > 10 µM
- IC50 [6]: > 10 µM
- IC50 [7]: > 10 µM
- IC50 [8]: > 9 µM
- IC50 [9]: > 9 µM
- IC50 [10]: > 10 µM
- IC50 [11]: > 10 µM
- IC50 [12]: > 10 µM
- IC50 [13]: > 10 µM
- IC50 [14]: 3.08 µM
- IC50 [15]: 3.41 µM
- IC50 [16]: 1.45 µM
- IC50 [17]: 0.938 µM
- IC50 [18]: 3.02 µM
- IC50 [19]: 3.01 µM
- IC50 [20]: 3.35 µM
- IC50 [21]: 2.97 µM
- IC50 [22]: 5.36 µM
- IC50 [23]: 2.05 µM
- IC50 [24]: 1.51 µM
- IC50 [25]: 2.07 µM
- IC50 [26]: 3.37 µM
- IC50 [27]: 2.88 µM
- IC50 [28]: 3.26 µM
- IC50 [29]: 3.3 µM
- IC50 [30]: 3.04 µM
- IC50 [31]: 3.14 µM

SMILES: CN(c1ncccc1CNc1ccnc(-c2cc3cc(Cl)ccc3[nH]2)n1)S(C)(=O)=O
- IC50 [32]: > 10 µM
- IC50 [33]: > 10 µM
- IC50 [34]: > 10 µM
- IC50 [35]: > 10 µM
- IC50 [36]: > 10 µM
- IC50 [37]: > 10 µM
- IC50 [38]: > 10 µM
- IC50 [39]: > 10 µM
- IC50 (SRSF protein kinase 1 [40]): > 50 µM
- dTM (SRSF protein kinase 1 [41]): 0.5 K
- dTM [42]: 0.3 K
